Reference: PubChem BioAssay (NCI)
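Step 1: Grow cells in 96-well plates. Step 2: Expose to compound for 48 hours at 5 concentrations. Step 3: Interpolate endpoints linearly; if unreached, use highest concentration. GI50: concentration for 50% inhibition of growth. TGI is the concentration that stops growth completely.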

How the values were obtained:
Assay in all cases: NCI-60 cell line screen, 48 h
HCT-15 colon = system: HCT-15 colon
M14 melanoma = system: M14 melanoma
HS 578T breast = system: HS 578T breast
RXF 393 renal = system: RXF 393 renal
PC-3 prostate = system: PC-3 prostate
NCI-H522 lung = system: NCI-H522 lung
MDA-MB-231 breast = system: MDA-MB-231 breast
HCT-116 colon = system: HCT-116 colon
HOP-62 NSCLC = system: HOP-62 NSCLC
HCC-2998 colon = system: HCC-2998 colon

| Structure (SMILES) | TGI (HCT-15 colon) [µM] | TGI (M14 melanoma) [µM] | TGI (HS 578T breast) [µM] | TGI (RXF 393 renal) [µM] | TGI (PC-3 prostate) [µM] | TGI (NCI-H522 lung) [µM] | TGI (MDA-MB-231 breast) [µM] | TGI (HCT-116 colon) [µM] | TGI (HOP-62 NSCLC) [µM] | TGI (HCC-2998 colon) [µM] | GI50 (HCT-15 colon) [µM] | GI50 (M14 melanoma) [µM] | GI50 (HS 578T breast) [µM] | GI50 (RXF 393 renal) [µM] | GI50 (PC-3 prostate) [µM] | GI50 (NCI-H522 lung) [µM] | GI50 (MDA-MB-231 breast) [µM] | GI50 (HCT-116 colon) [µM] | GI50 (HOP-62 NSCLC) [µM] | GI50 (HCC-2998 colon) [µM] |
| --- | --- | --- | --- | --- | --- | --- | --- | --- | --- | --- | --- | --- | --- | --- | --- | --- | --- | --- | --- | --- |
| Cc1oc2nc(N(C)C)n3cnnc3c2c1C | > 100 | > 100 | > 100 | > 100 | > 100 | > 100 | > 100 | > 100 | > 100 | > 100 |  |  |  |  |  |  |  |  |  |  |
| CCCCCCCCCCCCCCCCCCNc1nc(=O)n(C2CC(OP(=O)(O)OCC3OC(n4cc(F)c(=O)[nH]c4=O)CC3O)C(CO)O2)cc1F (stereo not given) | > 100 | 43.3 | > 100 | 63 | > 100 | > 100 | > 100 | > 100 | > 100 | 52.9 |  |  |  |  |  |  |  |  |  |  |
| Cc1cc(OCc2nnc3n2N=C(c2cc(F)c(Cl)cc2Cl)/C(=C/c2ccc(-c4ccc(Cl)cc4)o2)S3)ccc1Cl | > 50 | > 50 | > 50 | > 50 | > 50 | > 50 | > 50 | > 50 | > 50 | > 50 |  |  |  |  |  |  |  |  |  |  |
| COc1ccc(/C=C(/c2ccc(OC)cc2)c2c(Cl)cc(Cl)c(/C(=C\c3ccc(OC)cc3)c3ccc(OC)cc3)c2N=Nc2ccccc2)cc1 | > 100 | > 100 | > 100 | > 100 | > 100 | > 100 | > 100 | > 100 | > 100 | > 100 |  |  |  |  |  |  |  |  |  |  |
| O=C(O)C1CSC2(CCCN(Cc3ccccc3)C2)N1 (stereo not given) | > 100 | > 100 | > 100 | > 100 | > 100 | > 100 | > 100 | > 100 | > 100 | > 100 |  |  |  |  |  |  |  |  |  |  |
| COC(=O)C(CNC(=O)/C=C/c1ccc(OC(C)=O)c(OC(C)=O)c1)NC(=O)/C=C/c1ccc(OC(C)=O)c(OC(C)=O)c1 (stereo not given) | > 100 | > 100 | > 100 | > 100 | > 100 | > 100 | > 100 | > 100 | > 100 | > 100 |  |  |  |  |  |  |  |  |  |  |
| CN1C/C(=C\c2cccs2)C(=O)/C(=C/c2cccs2)C1 | > 100 | 82.9 | > 100 | 54.8 | > 100 | > 100 | 48.3 | 34.4 | > 100 | 45.5 |  |  |  |  |  |  |  |  |  |  |
| CSc1c(C)n([O-])c2cc(Cl)c(Cl)cc2[n+]1=O | 49.6 | 45.6 | > 68.5 | 45.6 | 38.9 | 29.3 | 37.9 | 32 | > 100 | 38 |  |  |  |  |  |  |  |  |  |  |
| CCOC(=O)C1=C(C)N(Cc2ccccc2)C2(O)C(OC)CC(=O)C3C(=O)N(c4ccccc4)C(=O)C132 (stereo not given) | > 100 | > 100 | > 100 | 94.1 | 50.8 | 26.3 | 77.2 | > 100 | > 100 | 53.5 |  |  |  |  |  |  |  |  |  |  |
| O=C1c2cc3ncsc3cc2C(=O)c2c(O)ccc(O)c21 | > 100 | > 100 | > 100 | > 100 | > 100 | > 100 | > 100 | > 100 | > 100 | > 100 |  |  |  |  |  |  |  |  |  |  |
| NC(=S)NS(=O)(=O)c1ccc(Cl)cc1 | > 100 | > 100 | > 100 | > 100 | > 100 | > 100 | > 100 | > 100 | > 100 | > 100 |  |  |  |  |  |  |  |  |  |  |
| CCCCCCCCCCOc1ccc(N=Nc2nnc(-c3ccc(OCCCCC)cc3)s2)cc1 | > 100 | > 100 | > 100 | > 100 | > 100 | > 100 | > 100 | > 100 | > 100 | > 100 |  |  |  |  |  |  |  |  |  |  |
| CC(C)(C)OC(=O)NNCC(O)COc1ccccc1 (stereo not given) | > 100 | > 100 | > 100 | > 100 | > 100 | > 100 | > 100 | > 100 | > 100 | > 100 |  |  |  |  |  |  |  |  |  |  |
| CCCCOc1ccc(S(=O)(=O)/N=C(\NO)Nc2ccc(Cl)cc2)cc1 | 30.4 | 28.8 | 51.3 | 30.2 | 29.7 | 30.1 | 33.9 | 30.6 | 32.4 | 28.9 |  |  |  |  |  |  |  |  |  |  |
| CC1CN=C(c2ccc(CN3CCC(CCCC4CCN(Cc5ccc(C6=NCC(C)N6)cc5)CC4)CC3)cc2)N1 (stereo not given) | > 100 | > 100 | > 100 | > 100 | > 100 | 70.3 | 59.7 | > 100 | > 100 | 28.7 |  |  |  |  |  |  |  |  |  |  |
| CC1=NN(c2nc(N)nc(-c3cc4ccccc4oc3=N)n2)C(C)(C)C1 | 35.9 | 36 | 48.1 | 43.5 | 33 | 39.9 | 43.4 | 35.5 | 37.2 | 28.8 |  |  |  |  |  |  |  |  |  |  |
| COc1ccc(S(=O)(=O)Nc2cc(Sc3cccc4cccnc34)c(O)c3ccccc23)cc1 | 8.23 | 12.1 | 28.9 | 6.33 | 10.6 | 3.74 | 12.5 | 2.35 | 21.7 | 21.3 | 0.477 | 1.3 | 3.09 | 1.24 | 0.512 | 1.36 | 0.992 | 0.505 | 1.71 | 6.7 |
